Measured values published in PubChem BioAssay (NCI).
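Grown in 96-well plates, cells were treated for 48 hours with each compound at five concentrations. Insufficient inhibition: endpoint recorded as highest concentration tested. The concentration for full growth arrest is given as TGI.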

Each molecule was assayed on SF-268 CNS (assay: growth of human tumour cells (NCI), 48 h).

Q: For COC(=O)c1c[nH]cc1CCCCc1c[nH]cc1C(=O)OC, which TGI is on record?
A: > 100 µM

Q: For CCOC(=O)CCC(NC(=O)c1ccc(NCc2ccc3nc(-c4ccccc4)c(Cl)nc3c2)cc1)C(=O)OCC (stereo not drawn), which TGI is on record?
A: > 100 µM

What follows are molecules tested on HOP-62 NSCLC (assay: growth of human tumour cells (NCI), 48 h).

Q: With C[Si](C)(C)CN1C(=O)c2ccccc2C1(O)c1ccccc1 (stereo not drawn) as the molecule, how does the TGI read?
A: > 100 µM

Q: CC(C)(C)OC(=O)N1C2CCCC23O[C@@H]1c1cc2c(cc1C3=O)OCO2 (stereo partly drawn) was tested. Which TGI did it give?
A: > 100 µM

Q: With COC(=O)c1c[nH]cc1CCCCc1c[nH]cc1C(=O)OC as the molecule, how does the TGI read?
A: > 100 µM

Q: With CCOC(=O)CCC(NC(=O)c1ccc(NCc2ccc3nc(-c4ccccc4)c(Cl)nc3c2)cc1)C(=O)OCC (stereo not drawn) as the molecule, how does the TGI read?
A: > 100 µM

Each molecule was assayed on SR leukemia (assay: growth of human tumour cells (NCI), 48 h).

Q: How did the TGI turn out when C[Si](C)(C)CN1C(=O)c2ccccc2C1(O)c1ccccc1 (stereo not drawn) was run?
A: > 100 µM

Q: CC(C)(C)OC(=O)N1C2CCCC23O[C@@H]1c1cc2c(cc1C3=O)OCO2 (stereo partly drawn) was tested. Which TGI did it give?
A: > 100 µM

Q: How did the TGI turn out when COC(=O)c1c[nH]cc1CCCCc1c[nH]cc1C(=O)OC was run?
A: > 100 µM

Q: CCOC(=O)CCC(NC(=O)c1ccc(NCc2ccc3nc(-c4ccccc4)c(Cl)nc3c2)cc1)C(=O)OCC (stereo not drawn) was tested. Which TGI did it give?
A: > 100 µM

What follows are molecules tested on OVCAR-8 ovarian (assay: growth of human tumour cells (NCI), 48 h).

Q: With C[Si](C)(C)CN1C(=O)c2ccccc2C1(O)c1ccccc1 (stereo not drawn) as the molecule, how does the TGI read?
A: > 100 µM

Q: Which TGI does the source give for CC(C)(C)OC(=O)N1C2CCCC23O[C@@H]1c1cc2c(cc1C3=O)OCO2 (stereo partly drawn) here?
A: > 100 µM

Q: With COC(=O)c1c[nH]cc1CCCCc1c[nH]cc1C(=O)OC as the molecule, how does the TGI read?
A: > 100 µM

These molecules were tested on M19-MEL melanoma (assay: growth of human tumour cells (NCI), 48 h).

Q: With CC(C)(C)OC(=O)N1C2CCCC23O[C@@H]1c1cc2c(cc1C3=O)OCO2 (stereo partly drawn) as the molecule, how does the TGI read?
A: > 100 µM

Q: How did the TGI turn out when COC(=O)c1c[nH]cc1CCCCc1c[nH]cc1C(=O)OC was run?
A: > 100 µM

Q: For CCOC(=O)CCC(NC(=O)c1ccc(NCc2ccc3nc(-c4ccccc4)c(Cl)nc3c2)cc1)C(=O)OCC (stereo not drawn), which TGI is on record?
A: 43.2 µM

Each molecule was assayed on HL-60(TB) leukemia (assay: growth of human tumour cells (NCI), 48 h).

Q: How did the TGI turn out when C[Si](C)(C)CN1C(=O)c2ccccc2C1(O)c1ccccc1 (stereo not drawn) was run?
A: > 100 µM

Q: CC(C)(C)OC(=O)N1C2CCCC23O[C@@H]1c1cc2c(cc1C3=O)OCO2 (stereo partly drawn) was tested. Which TGI did it give?
A: 38.3 µM

Q: For COC(=O)c1c[nH]cc1CCCCc1c[nH]cc1C(=O)OC, which TGI is on record?
A: > 100 µM

Q: CCOC(=O)CCC(NC(=O)c1ccc(NCc2ccc3nc(-c4ccccc4)c(Cl)nc3c2)cc1)C(=O)OCC (stereo not drawn) was tested. Which TGI did it give?
A: > 100 µM

These molecules were tested on SF-295 CNS (assay: growth of human tumour cells (NCI), 48 h).

Q: With C[Si](C)(C)CN1C(=O)c2ccccc2C1(O)c1ccccc1 (stereo not drawn) as the molecule, how does the TGI read?
A: > 100 µM

Q: How did the TGI turn out when CC(C)(C)OC(=O)N1C2CCCC23O[C@@H]1c1cc2c(cc1C3=O)OCO2 (stereo partly drawn) was run?
A: 82.9 µM

Q: How did the TGI turn out when COC(=O)c1c[nH]cc1CCCCc1c[nH]cc1C(=O)OC was run?
A: > 100 µM

Q: For CCOC(=O)CCC(NC(=O)c1ccc(NCc2ccc3nc(-c4ccccc4)c(Cl)nc3c2)cc1)C(=O)OCC (stereo not drawn), which TGI is on record?
A: > 100 µM

What follows are molecules tested on CAKI-1 renal (assay: growth of human tumour cells (NCI), 48 h).

Q: Which TGI does the source give for C[Si](C)(C)CN1C(=O)c2ccccc2C1(O)c1ccccc1 (stereo not drawn) here?
A: > 91.6 µM

Q: Which TGI does the source give for CC(C)(C)OC(=O)N1C2CCCC23O[C@@H]1c1cc2c(cc1C3=O)OCO2 (stereo partly drawn) here?
A: 87.1 µM

Q: Which TGI does the source give for COC(=O)c1c[nH]cc1CCCCc1c[nH]cc1C(=O)OC here?
A: > 100 µM

Q: How did the TGI turn out when CCOC(=O)CCC(NC(=O)c1ccc(NCc2ccc3nc(-c4ccccc4)c(Cl)nc3c2)cc1)C(=O)OCC (stereo not drawn) was run?
A: > 100 µM

The molecules below were run on DMS 114 small cell lung (assay: growth of human tumour cells (NCI), 48 h).

Q: C[Si](C)(C)CN1C(=O)c2ccccc2C1(O)c1ccccc1 (stereo not drawn) was tested. Which TGI did it give?
A: > 100 µM

Q: With CC(C)(C)OC(=O)N1C2CCCC23O[C@@H]1c1cc2c(cc1C3=O)OCO2 (stereo partly drawn) as the molecule, how does the TGI read?
A: > 100 µM

Q: With CCOC(=O)CCC(NC(=O)c1ccc(NCc2ccc3nc(-c4ccccc4)c(Cl)nc3c2)cc1)C(=O)OCC (stereo not drawn) as the molecule, how does the TGI read?
A: > 100 µM

What follows are molecules tested on SNB-75 CNS (assay: growth of human tumour cells (NCI), 48 h).

Q: C[Si](C)(C)CN1C(=O)c2ccccc2C1(O)c1ccccc1 (stereo not drawn) was tested. Which TGI did it give?
A: > 100 µM

Q: Which TGI does the source give for CC(C)(C)OC(=O)N1C2CCCC23O[C@@H]1c1cc2c(cc1C3=O)OCO2 (stereo partly drawn) here?
A: 56.8 µM

Q: With CCOC(=O)CCC(NC(=O)c1ccc(NCc2ccc3nc(-c4ccccc4)c(Cl)nc3c2)cc1)C(=O)OCC (stereo not drawn) as the molecule, how does the TGI read?
A: > 100 µM

What follows are molecules tested on IGROV1 ovarian (assay: growth of human tumour cells (NCI), 48 h).

Q: For C[Si](C)(C)CN1C(=O)c2ccccc2C1(O)c1ccccc1 (stereo not drawn), which TGI is on record?
A: > 100 µM

Q: How did the TGI turn out when CC(C)(C)OC(=O)N1C2CCCC23O[C@@H]1c1cc2c(cc1C3=O)OCO2 (stereo partly drawn) was run?
A: > 100 µM

Q: For COC(=O)c1c[nH]cc1CCCCc1c[nH]cc1C(=O)OC, which TGI is on record?
A: > 100 µM

Q: With CCOC(=O)CCC(NC(=O)c1ccc(NCc2ccc3nc(-c4ccccc4)c(Cl)nc3c2)cc1)C(=O)OCC (stereo not drawn) as the molecule, how does the TGI read?
A: > 100 µM

These molecules were tested on SK-OV-3 ovarian (assay: growth of human tumour cells (NCI), 48 h).

Q: Which TGI does the source give for CC(C)(C)OC(=O)N1C2CCCC23O[C@@H]1c1cc2c(cc1C3=O)OCO2 (stereo partly drawn) here?
A: 94 µM

Q: How did the TGI turn out when COC(=O)c1c[nH]cc1CCCCc1c[nH]cc1C(=O)OC was run?
A: > 100 µM

Q: How did the TGI turn out when CCOC(=O)CCC(NC(=O)c1ccc(NCc2ccc3nc(-c4ccccc4)c(Cl)nc3c2)cc1)C(=O)OCC (stereo not drawn) was run?
A: > 100 µM

What follows are molecules tested on HCC-2998 colon (assay: growth of human tumour cells (NCI), 48 h).

Q: For C[Si](C)(C)CN1C(=O)c2ccccc2C1(O)c1ccccc1 (stereo not drawn), which TGI is on record?
A: > 100 µM

Q: For COC(=O)c1c[nH]cc1CCCCc1c[nH]cc1C(=O)OC, which TGI is on record?
A: > 100 µM

Q: Which TGI does the source give for CCOC(=O)CCC(NC(=O)c1ccc(NCc2ccc3nc(-c4ccccc4)c(Cl)nc3c2)cc1)C(=O)OCC (stereo not drawn) here?
A: > 100 µM

What follows are molecules tested on SW-620 colon (assay: growth of human tumour cells (NCI), 48 h).

Q: For C[Si](C)(C)CN1C(=O)c2ccccc2C1(O)c1ccccc1 (stereo not drawn), which TGI is on record?
A: > 100 µM

Q: With CC(C)(C)OC(=O)N1C2CCCC23O[C@@H]1c1cc2c(cc1C3=O)OCO2 (stereo partly drawn) as the molecule, how does the TGI read?
A: > 100 µM

Q: Which TGI does the source give for COC(=O)c1c[nH]cc1CCCCc1c[nH]cc1C(=O)OC here?
A: > 100 µM

Q: CCOC(=O)CCC(NC(=O)c1ccc(NCc2ccc3nc(-c4ccccc4)c(Cl)nc3c2)cc1)C(=O)OCC (stereo not drawn) was tested. Which TGI did it give?
A: > 100 µM

These molecules were tested on UACC-62 melanoma (assay: growth of human tumour cells (NCI), 48 h).

Q: With C[Si](C)(C)CN1C(=O)c2ccccc2C1(O)c1ccccc1 (stereo not drawn) as the molecule, how does the TGI read?
A: > 100 µM

Q: CC(C)(C)OC(=O)N1C2CCCC23O[C@@H]1c1cc2c(cc1C3=O)OCO2 (stereo partly drawn) was tested. Which TGI did it give?
A: 67 µM

These molecules were tested on XF 498 CNS (assay: growth of human tumour cells (NCI), 48 h).

Q: How did the TGI turn out when C[Si](C)(C)CN1C(=O)c2ccccc2C1(O)c1ccccc1 (stereo not drawn) was run?
A: > 100 µM

Q: How did the TGI turn out when CC(C)(C)OC(=O)N1C2CCCC23O[C@@H]1c1cc2c(cc1C3=O)OCO2 (stereo partly drawn) was run?
A: > 100 µM

Q: For COC(=O)c1c[nH]cc1CCCCc1c[nH]cc1C(=O)OC, which TGI is on record?
A: > 100 µM
